According to ChEMBL document CHEMBL1201862, “PubChem BioAssay data set” (2004):
Where “and” joins values, the source holds several entries; their conditions need not be identical. Equal values may be shown once.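 1) Cells in 96-well plates. 2) Compound, 48 h, 5 concentrations. 3) Linear interpolation between surrounding doses. 4) Unreached endpoint = highest concentration. GI50 is the concentration that inhibits growth by half.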 Calls of active or inactive are those of the source. Rule as the data show it: active = GI50 up to about 1.1 µM and inactive = higher.

Columns and labels:
Assay in all cases: NCI anticancer screen, dose series, 48 h
786-0 = tested on: 786-0
A498 = tested on: A498
A549 = tested on: A549
ACHN = tested on: ACHN
BT-549 = tested on: BT-549
CAKI-1 = tested on: CAKI-1
COLO 205 = tested on: COLO 205
DU-145 = tested on: DU-145
EKVX = tested on: EKVX
HCC 2998 = tested on: HCC 2998
HCT-116 = tested on: HCT-116
HCT-15 = tested on: HCT-15
HL-60 = tested on: HL-60
HOP-62 = tested on: HOP-62
HT-29 = tested on: HT-29
Hs-578T = tested on: Hs-578T
IGROV-1 = tested on: IGROV-1
K562 = tested on: K562
KM12 = tested on: KM12
LOX IMVI = tested on: LOX IMVI
M14 = tested on: M14
MCF7 = tested on: MCF7
MDA-MB-231 = tested on: MDA-MB-231
MDA-MB-435 = tested on: MDA-MB-435
MOLT-4 = tested on: MOLT-4
Malme-3M = tested on: Malme-3M
NCI-H226 = tested on: NCI-H226
NCI-H23 = tested on: NCI-H23
NCI-H460 = tested on: NCI-H460
NCI-H522 = tested on: NCI-H522
NCI/ADR-RES = tested on: NCI/ADR-RES
OVCAR-3 = tested on: OVCAR-3
OVCAR-4 = tested on: OVCAR-4
OVCAR-5 = tested on: OVCAR-5
OVCAR-8 = tested on: OVCAR-8
PC-3 = tested on: PC-3
RPMI-8226 = tested on: RPMI-8226
RXF 393 = tested on: RXF 393
SF-268 = tested on: SF-268
SF-295 = tested on: SF-295
SK-MEL-28 = tested on: SK-MEL-28
SK-MEL-2 = tested on: SK-MEL-2
SK-MEL-5 = tested on: SK-MEL-5
SN12C = tested on: SN12C
SNB-19 = tested on: SNB-19
SNB-75 = tested on: SNB-75
SR = tested on: SR
SW-620 = tested on: SW-620
T47D = tested on: T47D
TK-10 = tested on: TK-10
U-251 = tested on: U-251
UACC-257 = tested on: UACC-257
UACC-62 = tested on: UACC-62
UO-31 = tested on: UO-31
CCRF-CEM = tested on: CCRF-CEM
HOP-92 = tested on: HOP-92
SF-539 = tested on: SF-539
SK-OV-3 = tested on: SK-OV-3

Measured: GI50

COc1cc2c(cc1OCCCOc1cc3c(cc1OC)C(=O)N1CCC[C@H]1C(=O)N3)N=C[C@@H]1CCCN1C2=O
71.3 µM: HCT-15
inactive: 786-0 29 µM | A498 17.3 µM | A549 22.1 µM | ACHN 17.1 µM | BT-549 10.3 µM | CAKI-1 29.9 µM | COLO 205 3.61 µM | DU-145 36.7 µM | EKVX 17 µM | HCC 2998 14.3 µM | HCT-116 26.4 µM | HL-60 8.34 µM | HOP-62 34.2 µM | HT-29 16.9 µM | Hs-578T 29 µM | IGROV-1 14.6 µM | K562 3.77 µM | KM12 16.4 µM | LOX IMVI 3.07 µM | M14 20.3 µM | MCF7 4.52 µM | MDA-MB-231 14.9 µM | MDA-MB-435 15.8 µM | Malme-3M 10.9 µM | NCI-H226 14.6 µM | NCI-H23 23.6 µM | NCI-H460 19.9 µM | NCI-H522 1.73 µM | NCI/ADR-RES 76.7 µM | OVCAR-3 19.5 µM | OVCAR-4 18.5 µM | OVCAR-5 25.1 µM | OVCAR-8 23.4 µM | PC-3 13.6 µM | RPMI-8226 6.46 µM | RXF 393 13.3 µM | SF-268 4.82 µM | SF-295 15.8 µM | SK-MEL-28 21 µM | SK-MEL-2 12.6 µM | SK-MEL-5 12.5 µM | SN12C 15.7 µM | SNB-19 27.3 µM | SNB-75 10.1 µM | SR 1.54 µM | SW-620 11 µM | T47D 7.94 µM | TK-10 25.8 µM | U-251 4.65 µM | UACC-257 24.5 µM | UACC-62 6.62 µM | UO-31 18.5 µM
active: MOLT-4 0.206 µM

O=C1CCc2c3c(c4c([nH]c5ccccc54)c2CC1)C(=O)NC3=O
2.7 µM: HCT-15
inactive: 786-0 11.7 µM | A498 2.22 µM | A549 7.05 µM | BT-549 7.46 µM | CAKI-1 2.02 µM | CCRF-CEM 2 µM | DU-145 9.98 µM | EKVX 11.1 µM | HCC 2998 27.9 µM | HCT-116 2.05 µM | HOP-62 12.3 µM | HOP-92 18.6 µM | HT-29 3.53 µM | Hs-578T 2.08 µM | K562 1.19 µM | LOX IMVI 1.18 µM | M14 5.05 µM | MCF7 2.97 µM | MDA-MB-231 25.3 µM | MDA-MB-435 1.31 µM | Malme-3M 3.48 µM | NCI-H226 3.32 µM | NCI-H23 8.93 µM | NCI-H460 1.58 µM | NCI/ADR-RES 16.4 µM | OVCAR-3 3.51 µM | OVCAR-4 2.08 µM | OVCAR-5 34.1 µM | OVCAR-8 6.87 µM | PC-3 2.05 µM | RPMI-8226 3.38 µM | RXF 393 1.91 µM | SF-268 7.85 µM | SF-295 6.01 µM | SF-539 5.36 µM | SK-MEL-28 3.14 µM | SK-MEL-2 2.7 µM | SK-MEL-5 1.91 µM | SN12C 4.32 µM | SNB-19 3.94 µM | T47D 1.46 µM | TK-10 10.2 µM | U-251 4.55 µM | UACC-257 5.05 µM | UACC-62 4.45 µM
active: ACHN 1.01 µM | COLO 205 0.63 µM | HL-60 0.671 µM | IGROV-1 0.893 µM | KM12 0.0942 µM | MOLT-4 0.774 µM | NCI-H522 0.766 µM | SNB-75 0.0265 µM | SW-620 0.815 µM | UO-31 0.998 µM

Sc1nn2c(COc3ccc(Cl)cc3)nnc2s1
81.8 µM: HCT-15
inactive: 786-0 > 100 µM | A549 > 100 µM | ACHN > 100 µM | CAKI-1 > 100 µM | COLO 205 > 100 µM | DU-145 > 100 µM | EKVX > 100 µM | HCC 2998 > 100 µM | HCT-116 > 100 µM | HL-60 > 100 µM | HOP-62 > 100 µM | HOP-92 > 100 µM | HT-29 > 100 µM | IGROV-1 > 100 µM | K562 > 100 µM | KM12 > 100 µM | M14 > 100 µM | MCF7 > 100 µM | MDA-MB-231 > 100 µM | MDA-MB-435 > 100 µM | MOLT-4 > 100 µM | Malme-3M > 100 µM | NCI-H226 > 100 µM | NCI-H23 > 100 µM | NCI-H460 > 100 µM | NCI-H522 > 100 µM | NCI/ADR-RES > 100 µM | OVCAR-3 > 100 µM | OVCAR-4 > 100 µM | OVCAR-5 > 100 µM | OVCAR-8 > 100 µM | PC-3 > 100 µM | RPMI-8226 > 100 µM | RXF 393 > 100 µM | SF-268 > 100 µM | SF-295 > 100 µM | SF-539 > 100 µM | SK-MEL-28 > 100 µM | SK-MEL-2 > 100 µM | SK-MEL-5 > 100 µM | SK-OV-3 > 100 µM | SN12C > 100 µM | SNB-19 > 100 µM | SNB-75 > 100 µM | SR > 100 µM | SW-620 > 100 µM | T47D > 100 µM | TK-10 > 100 µM | U-251 > 100 µM | UACC-257 > 100 µM | UACC-62 > 100 µM | UO-31 > 100 µM

CC(=O)OCC1OC(n2c(S)c(C#N)c(-c3ccccc3)c(C#N)c2=O)C(OC(C)=O)C(OC(C)=O)C1OC(C)=O (stereo not given)
> 100 µM: HCT-15
inactive: 786-0 30 µM and 33.9 µM | A549 > 100 µM | ACHN 54.1 µM and 78.5 µM | CAKI-1 50.8 µM and 61.9 µM | DU-145 58.3 µM | HOP-62 21.7 µM and 21.9 µM | HOP-92 31.3 µM and 16.6 µM | Hs-578T 38.8 µM | IGROV-1 53 µM | K562 > 100 µM | NCI-H226 > 87.7 µM | NCI-H460 50.2 µM and > 88.7 µM | NCI/ADR-RES > 100 µM | RXF 393 19.5 µM and 18.5 µM | SF-268 21.8 µM and 33 µM | SNB-19 32.2 µM | SNB-75 26.2 µM and 20.1 µM | U-251 23.8 µM and 35.2 µM

COc1cc2c(cc1C)NC(=O)/C2=C\c1cccnc1
inactive: 786-0 25 µM | A498 10.3 µM | A549 21.3 µM | ACHN 26.9 µM | BT-549 21.9 µM | CAKI-1 15.4 µM | CCRF-CEM 20.8 µM | COLO 205 16.5 µM | DU-145 17.1 µM | EKVX 19.8 µM | HCC 2998 10 µM | HCT-116 15.1 µM | HL-60 5 µM | HOP-62 22.4 µM | HOP-92 25.1 µM | HT-29 15.5 µM | Hs-578T 24.7 µM | K562 9.4 µM | KM12 13.6 µM | LOX IMVI 18.7 µM | M14 12.9 µM | MCF7 11.7 µM | MDA-MB-435 13.7 µM | MOLT-4 7.98 µM | Malme-3M 15 µM | NCI-H23 10.8 µM | NCI-H460 22.6 µM | NCI-H522 20.4 µM | NCI/ADR-RES 14.1 µM | OVCAR-3 13.7 µM | OVCAR-4 18.7 µM | OVCAR-5 17.6 µM | OVCAR-8 15.5 µM | PC-3 30.1 µM | RPMI-8226 26.9 µM | RXF 393 17.4 µM | SF-268 19.4 µM | SF-295 14.7 µM | SF-539 20.4 µM | SK-MEL-28 50.4 µM | SK-MEL-2 18.7 µM | SK-MEL-5 15.1 µM | SK-OV-3 16.3 µM | SN12C 15.7 µM | SNB-19 12.6 µM | SNB-75 17.9 µM | SW-620 26.8 µM | T47D 3.91 µM | TK-10 14.9 µM | U-251 12.9 µM | UACC-257 13.1 µM | UO-31 15.6 µM
16.4 µM: HCT-15
